Columns and labels:
[1] = Solubility test in PBS buffer; assay type: physicochemical; settings: PBS pH 7.4, 0.2 mg/mL; for Appearance at 37° C.: 1 minute in 37° C. water bath; for Appearance at RT: room temperature
Protocol: First, compounds were weighed in a vial and PBS buffer (137, 2.7, 10 and 1.8 mM in NaCl, KCl, Na2HPO4, KH2PO4, respectively; pH=7.4) was added, such that the concentration would become 0.2 mg/mL in case full dissolution would take place. The sample was shaken, left to stand for an hour, shaken again, and then the appearance of the solution at room temperature (RT) was checked. Next, the sample was warmed for 1 minute in a water bath of 37° C., and the appearance of the solution was checked again. In the below table the results are compiled.

[2] = Solubility test in demineralized water; assay type: physicochemical; settings: 0.3 mM, film, sonicated, overnight
Protocol: Next, compounds were weighed and dissolved in chloroform/methanol. The solutions were left to dry in a vial forming a film of the materials. The vials were put in vacuo to remove traces of organic solvent. Demineralized water was added, such that the concentration of the compounds would become 0.3 mM in case full dissolution would take place (0.3 mM corresponds to 0.3 mg/mL for a MW=1000 Dalton compound). The vial was briefly sonicated in a water bath, left to stand overnight, and once again sonicated (sonication at RT). The appearances of the solutions at RT were checked to assess solubilities. In the below table the results are compiled.

[3] = Degradation by augmented oxidation test; assay type: physicochemical; settings: 12% hydrogen peroxide in water, 80° C., 4 hours
Protocol: The reference compounds MDP and MDP(Bn) as well as the Bn-substituted compounds from Example 7 (i.e. MDP(Bn)-DSPE[click] and Example 14 (i.e. MTP(Bn)-a-DPPE) were mixed with 12% hydrogen peroxide in water and were heated to 80° C. for 4 hours, in order to get a fast degradation of the molecules by oxidation, mimicking slower in-vivo oxidation events.
The resulting reaction mixtures were diluted with acetonitrile and water (1:1) for the MDP and MDP(Bn) test solutions, or with iPrOH, acetonitrile and water (40:7.5:52.5) with 0.1% formic acid and 20 mM ammonium formate for the MDP(Bn)-DSPE[click] and the MTP(Bn)-a-DPPE solutions. The 4 diluted samples were analyzed by HPLC-MS. For reference, the 4 starting materials were also analyzed by HPLC-MS, as well as MDP-DSPE[click] and MTP-a-DPPE, i.e. the de-benzylated reference compounds to the Bn-substituted test molecules.

[4] = HPLC retention times to compare lipophilicities; assay type: physicochemical; settings: Kinetex EVO C18 column, same gradient A to B; higher retention time = more lipophilic
Protocol: Experimentally, one can also compare lipophilicities of molecules by performing HPLC using the same elution gradient. Molecules that have higher affinities with the hydrophobic C18-material of the column are more lipophilic and as a result have a higher retention time.
Methods: HPLC-MS(SIM) and HPLC-ELSD were performed on a Phenomenex Kinetex 5 micrometer EVO C18 100A LC-column (50×2.1 mm) employing the same gradient from A to B eluent, where A=20 mM NH4HCO2 in H2O with 0.1 v/v % formic acid, and B=2-propanol/MeCN/H2O 85:15:5, also with 20 mM NH4HCO2 and 0.1 v/v % formic acid.

human NOD2 (hNOD2) = target: T1, human NOD2 (hNOD2) (Homo sapiens, UniProt Q9HC29); test: In vitro NOD2 activation assay in HEK-Blue hNOD2 cells; assay type: cell-based; settings: overnight incubation, FIG. 3
T1 construct: host or cells: HEK-Blue hNOD2 cells
T1 sequence (Q9HC29 whole entry): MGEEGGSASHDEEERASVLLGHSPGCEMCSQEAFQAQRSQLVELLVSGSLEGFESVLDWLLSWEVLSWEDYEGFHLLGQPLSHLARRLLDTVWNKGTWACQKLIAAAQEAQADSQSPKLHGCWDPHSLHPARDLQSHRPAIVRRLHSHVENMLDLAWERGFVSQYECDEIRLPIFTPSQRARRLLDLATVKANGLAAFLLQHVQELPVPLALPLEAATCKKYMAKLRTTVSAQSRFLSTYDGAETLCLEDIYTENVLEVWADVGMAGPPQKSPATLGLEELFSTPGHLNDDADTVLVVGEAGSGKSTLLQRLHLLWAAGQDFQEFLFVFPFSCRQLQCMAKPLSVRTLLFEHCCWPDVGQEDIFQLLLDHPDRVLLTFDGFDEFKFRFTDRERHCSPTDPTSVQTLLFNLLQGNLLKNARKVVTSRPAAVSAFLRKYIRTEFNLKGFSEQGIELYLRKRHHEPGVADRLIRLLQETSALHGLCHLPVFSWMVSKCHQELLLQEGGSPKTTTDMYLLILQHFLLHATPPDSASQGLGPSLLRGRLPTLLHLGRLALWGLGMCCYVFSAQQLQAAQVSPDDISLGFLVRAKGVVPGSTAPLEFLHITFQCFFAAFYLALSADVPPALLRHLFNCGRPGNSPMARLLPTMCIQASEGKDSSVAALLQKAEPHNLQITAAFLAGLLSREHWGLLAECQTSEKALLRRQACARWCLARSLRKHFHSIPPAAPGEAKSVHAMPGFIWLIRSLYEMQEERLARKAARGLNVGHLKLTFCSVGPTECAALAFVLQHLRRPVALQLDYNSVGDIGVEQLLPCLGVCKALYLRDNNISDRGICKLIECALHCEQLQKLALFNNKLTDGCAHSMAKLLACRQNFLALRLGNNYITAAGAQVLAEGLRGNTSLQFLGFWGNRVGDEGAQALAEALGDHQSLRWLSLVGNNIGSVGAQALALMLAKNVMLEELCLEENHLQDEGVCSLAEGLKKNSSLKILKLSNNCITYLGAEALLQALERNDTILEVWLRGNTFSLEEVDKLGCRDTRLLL
Protocol: The stimulation of human NOD2 (hNOD2) by compounds disclosed herein was studied by monitoring activation of NF-κB in HEK-Blue™ hNOD2 cells (Invitrogen). 50,000 HEK-Blue™ hNOD2 cells were seeded in HEK-Blue™ Detection Medium in flat-bottom tissue culture plates. Concentration ranges of the test article (compounds diluted from DMSO-solutions (17.8 mmoL/L), first with demineralized water and then with PBS to the desired concentrations) were added to the cells in the tissue culture plates. Cells were incubated overnight at 37° C. and 5% CO2. The following day, supernatants were collected in an ELISA plate and the OD was measured at 620 nm using a spectrophotometer.
The signal in this assay is based on NOD2 stimulation with a ligand which subsequently activates NF-κB and AP-1, resulting in the production of SEAP. Levels of SEAP were then determined with HEK-Blue™ Detection medium (Invitrogen). The hydrolysis of the substrate in the medium by SEAP produces a purple/blue color that was then measured with an Absorbance microplate reader. OD values are mapped based on test article concentration and are depicted in FIG. 3. Assay performance was validated with muramyl dipeptide (CAS number [53678-77-6]).

| Appearance at 37° C. [1] | Appearance at RT [1] | Appearance at RT [2] | HPLC-MS t [4] | HPLC-ELSD t [4] | Compound | Oxidative degradation, products by HPLC-MS [3] | NOD2 activation (NF-κB/SEAP reporter, OD at 620 nm) (human NOD2 (hNOD2)) |
| --- | --- | --- | --- | --- | --- | --- | --- |
| suspension | suspension | Precipitate |  |  | CCCCCCCCCCCCCCCCCCNC(=O)CC[C@@H](NC(=O)[C@H](C)NC(=O)[C@@H](C)O[C@H]1[C@H](O)[C@@H](CO)OC(O)[C@@H]1NC(C)=O)C(N)=O (stereo partly shown) [Example 11, MDP-C18] |  |  |
| clear | clear | Clear | 0.95 min |  | CCCCCCCCCCCCCCCCCC(=O)OC[C@H]1OC(O)[C@H](NC(C)=O)[C@@H](O[C@H](C)C(=O)N[C@@H](C)C(=O)N[C@H](CCC(=O)O)C(N)=O)[C@@H]1O (stereo partly drawn) [MDP-C18[mur], N-Acetylmuramyl-L-Alanyl-D-Isoglutamine-6-O-Stearoyl, reference compound] |  |  |
|  |  | Precipitate |  |  | CCCCCCCCCCCCCCCCCC(=O)NCCCC[C@H](NC(=O)CC[C@@H](NC(=O)[C@H](C)NC(=O)[C@@H](C)O[C@H]1[C@H](O)[C@@H](CO)OC(OCc2ccccc2)[C@@H]1NC(C)=O)C(N)=O)C(N)=O (stereo partly shown) [Example 10, MTP-b-C18] |  |  |
| hazy | hazy | Gelly/hazy/precipitate | 4.46 min | 4.58 min | CCCCCCCCCCCCCCCCCC(=O)OC[C@H](COP(=O)(O)OCCNC(=O)Cn1cc(CNC(=O)CC[C@@H](NC(=O)[C@H](C)NC(=O)[C@@H](C)O[C@H]2[C@H](O)[C@@H](CO)OC(O)[C@@H]2NC(C)=O)C(N)=O)nn1)OC(=O)CCCCCCCCCCCCCCCCC (stereo partly shown) [Example 2, MDP-DSPE [Click]] |  | comparable |
| clear | hazy | Clear | 2.85 min | 3.04 min | CCCCCCCCCCCCCCCC(=O)OC[C@H](COP(=O)(O)OCCNC(=O)[C@H](C)NC(=O)CC[C@@H](NC(=O)[C@H](C)NC(=O)[C@@H](C)O[C@H]1[C@H](O)[C@@H](CO)OC(O)[C@@H]1NC(C)=O)C(N)=O)OC(=O)CCCCCCCCCCCCCCC (stereo partly drawn) [Mifamurtide, N—(N-Acetylmuramoyl)-L-alanyl-D-alpha-glutaminyl-N-[(7R)-4-hydroxy-4-oxido-10-oxo-7-[(1-oxohexadecyl)oxy]-3,5,9-trioxa-4-phosphapentacos-1-yl]-L-alaninamide, reference compound] |  |  |
| hazy | suspension | Hazy | 5.16 min | 5.16 min | CCCCCCCCCCCCCCCCCC(=O)OC[C@H](COP(=O)(O)OCCNC(=O)Cn1cc(CNC(=O)CC[C@@H](NC(=O)[C@H](C)NC(=O)[C@@H](C)O[C@H]2[C@H](O)[C@@H](CO)OC(OCc3ccccc3)[C@@H]2NC(C)=O)C(N)=O)nn1)OC(=O)CCCCCCCCCCCCCCCCC (stereo partly shown) [Example 7, MDP(Bn)-DSPE [Click]] | mainly degraded via oxidation of the Bn-group to a benzoate group (+14) followed by hydrolysis of the benzoate (−104) | comparable |
|  |  | Precipitate |  |  | CCCCCCCCCCCCCCCCCC(=O)OCc1cn(CCCC[C@H](NC(=O)CC[C@@H](NC(=O)[C@H](C)NC(=O)[C@@H](C)O[C@H]2[C@H](O)[C@@H](CO)OC(OCc3ccccc3)[C@@H]2NC(C)=O)C(N)=O)C(N)=O)nn1 (stereo partly shown) [Example 9, MTP-b-C18[Invclick]] |  |  |

More lines, now with the values behind:

| Compound | Appearance at 37° C. [1] | Appearance at RT [1] | Appearance at RT [2] | HPLC-MS t [4] | HPLC-ELSD t [4] | Oxidative degradation, products by HPLC-MS [3] | NOD2 activation (NF-κB/SEAP reporter, OD at 620 nm) (human NOD2 (hNOD2)) |
| --- | --- | --- | --- | --- | --- | --- | --- |
| CCCCCCCCCCCCCCCC(=O)OC[C@H](COP(=O)(O)OCCNC(=O)[C@H](C)NC(=O)CC[C@@H](NC(=O)[C@H](C)NC(=O)[C@@H](C)O[C@H]1[C@H](O)[C@@H](CO)OC(OCc2ccccc2)[C@@H]1NC(C)=O)C(N)=O)OC(=O)CCCCCCCCCCCCCCC (stereo partly shown) [MTP(Bn)-a-DPPE] |  |  |  |  |  | mainly degraded via oxidation of the Bn-group to a benzoate group (+14) followed by hydrolysis of the benzoate (−104) |  |
| CC(=O)N[C@H]1C(O)O[C@H](CO)[C@@H](O)[C@@H]1O[C@H](C)C(=O)N[C@@H](C)C(=O)N[C@H](CCC(=O)NCc1cn(CC(=O)O[C@H]2CC[C@@]3(C)C(=CC[C@H]4[C@@H]5CC[C@H]([C@H](C)CCCC(C)C)[C@@]5(C)CC[C@@H]43)C2)nn1)C(N)=O (stereo partly shown) [Example 3, MDP-Chol [Click]] | hazy | suspension | Gelly/hazy/precipitate |  |  |  | comparable |
| CC(=O)N[C@H]1[C@@H](OCc2ccccc2)O[C@H](CO)[C@@H](O)[C@@H]1O[C@H](C)C(=O)N[C@@H](C)C(=O)N[C@H](CCC(=O)NCc1cn(CC(=O)O[C@H]2CC[C@@]3(C)C(=CC[C@H]4[C@@H]5CC[C@H]([C@H](C)CCCC(C)C)[C@@]5(C)CC[C@@H]43)C2)nn1)C(N)=O [Example 8, MDP(Bn)-Chol[Click]] | suspension | suspension | Precipitate |  |  |  | able to activate NOD2, but seemingly to a lesser extent |
| CCCCCCCCCCCCCCCCCC(=O)OC[C@H](COC(=O)NCCCC[C@H](NC(=O)CC[C@@H](NC(=O)[C@H](C)NC(=O)[C@@H](C)O[C@H]1[C@H](O)[C@@H](CO)OC(OCc2ccccc2)[C@@H]1NC(C)=O)C(N)=O)C(N)=O)OC(=O)CCCCCCCCCCCCCCCCC (stereo partly shown) [Example 13, MTP-b-DSG] | suspension | suspension | Gel/precipitate |  | 5.49 min |  | able to activate NOD2, but seemingly to a lesser extent |
| CCCCCCCCCCCCCCCC(=O)OC[C@H](COP(=O)(O)OCCNC(=O)[C@H](C)NC(=O)CC[C@@H](NC(=O)[C@H](C)NC(=O)[C@@H](C)O[C@H]1[C@H](O)[C@@H](CO)OC(OCc2ccccc2)[C@@H]1NC(C)=O)C(N)=O)OC(=O)CCCCCCCCCCCCCCC (stereo partly shown) [Example 14, MTP(Bn)-a-DPPE] |  |  |  | 3.61 min | 3.5 min |  |  |
